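96-well plates; 48 h exposure; 5 concentrations. Endpoints by linear interpolation between flanking doses. Not reached: highest tested concentration assigned. GI50 = concentration required for 50% inhibition of growth.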 Active and inactive are the calls of the source. Rule as the data show it: active = GI50 up to about 1.1 µM and inactive = higher.
Legend:
Test in all cases: NCI tumour cell line growth inhibition, 48 h
ACHN = test system: ACHN
BT-549 = test system: BT-549
CAKI-1 = test system: CAKI-1
HCT-15 = test system: HCT-15
Hs-578T = test system: Hs-578T
K562 = test system: K562
KM12 = test system: KM12
LOX IMVI = test system: LOX IMVI
MDA-MB-435 = test system: MDA-MB-435
NCI-H226 = test system: NCI-H226
NCI-H522 = test system: NCI-H522
OVCAR-5 = test system: OVCAR-5
RXF 393 = test system: RXF 393
SF-268 = test system: SF-268
SK-MEL-2 = test system: SK-MEL-2
SK-OV-3 = test system: SK-OV-3
T47D = test system: T47D
UACC-62 = test system: UACC-62
A549 = test system: A549

Measured: GI50

CCC1C(NC(=O)OC)C(=O)N1[C@@H](C)c1ccccc1 (some centres undefined)
inactive: ACHN > 100 µM | BT-549 > 100 µM | CAKI-1 > 100 µM | Hs-578T > 100 µM | K562 > 100 µM | KM12 > 100 µM | LOX IMVI > 100 µM | MDA-MB-435 > 100 µM | NCI-H226 > 100 µM | NCI-H522 > 100 µM | OVCAR-5 > 100 µM | RXF 393 > 100 µM | SF-268 > 100 µM | SK-MEL-2 > 100 µM | SK-OV-3 > 100 µM | T47D > 100 µM | UACC-62 > 100 µM
> 100 µM: HCT-15

CC12CP(=O)(O)CC1C2(Cl)Cl (centres undefined)
> 100 µM: HCT-15
inactive: A549 > 100 µM | ACHN > 100 µM | BT-549 > 100 µM | CAKI-1 > 100 µM | Hs-578T > 100 µM | K562 > 100 µM | KM12 > 100 µM | LOX IMVI > 100 µM | MDA-MB-435 > 100 µM | NCI-H226 > 100 µM | NCI-H522 > 100 µM | OVCAR-5 > 100 µM | RXF 393 > 100 µM | SF-268 > 100 µM | SK-MEL-2 > 100 µM | SK-OV-3 > 100 µM | T47D > 100 µM | UACC-62 > 100 µM

C[C@H](NC(=O)C(C)(Cc1ccc(O)cn1)NC(=O)c1ccccc1)c1ccccc1 (some centres undefined)
inactive: A549 > 100 µM | ACHN > 100 µM | BT-549 > 100 µM | CAKI-1 > 100 µM | Hs-578T > 100 µM | K562 > 100 µM | KM12 > 100 µM | LOX IMVI > 100 µM | MDA-MB-435 > 100 µM | NCI-H226 > 100 µM | NCI-H522 > 100 µM | OVCAR-5 > 100 µM | RXF 393 > 100 µM | SF-268 > 100 µM | SK-MEL-2 > 100 µM | T47D > 100 µM | UACC-62 > 100 µM
> 100 µM: HCT-15

C[N+](C)(N)Cc1nc(-c2ccc(Cl)cc2)no1
inactive: A549 > 100 µM | ACHN > 100 µM | BT-549 > 100 µM | CAKI-1 > 100 µM | Hs-578T > 100 µM | K562 44.2 µM | KM12 > 100 µM | LOX IMVI > 100 µM | MDA-MB-435 > 100 µM | NCI-H226 > 100 µM | NCI-H522 > 100 µM | OVCAR-5 > 100 µM | RXF 393 > 100 µM | SK-MEL-2 > 100 µM | SK-OV-3 > 100 µM | T47D 22.9 µM | UACC-62 > 100 µM
> 100 µM: HCT-15

NC1CC(=O)c2sccc21 (centres undefined)
> 100 µM: HCT-15
inactive: A549 > 100 µM | ACHN > 100 µM | BT-549 > 100 µM | CAKI-1 > 100 µM | Hs-578T > 100 µM | K562 > 100 µM | KM12 > 100 µM | MDA-MB-435 > 100 µM | NCI-H226 > 100 µM | NCI-H522 > 100 µM | OVCAR-5 > 100 µM | RXF 393 29.6 µM | SF-268 > 100 µM | SK-MEL-2 27.9 µM | SK-OV-3 > 100 µM | T47D > 100 µM | UACC-62 > 100 µM

CN(CCCNC(=O)c1nn(-c2ccc(Cl)cc2Cl)c2c1Cc1ccccc1-2)CCCNC(=O)c1nn(-c2ccc(Cl)cc2Cl)c2c1Cc1ccccc1-2
inactive: A549 1.77 µM | ACHN 1.67 µM | BT-549 2.03 µM | CAKI-1 1.55 µM | Hs-578T 2.74 µM | KM12 2.37 µM | LOX IMVI 1.67 µM | MDA-MB-435 1.48 µM | NCI-H522 1.43 µM | OVCAR-5 1.57 µM | RXF 393 1.77 µM | SF-268 1.96 µM | SK-MEL-2 1.92 µM | SK-OV-3 1.78 µM | T47D 1.92 µM | UACC-62 1.57 µM
1.84 µM: HCT-15
active: K562 0.944 µM

CCN(CC)C(=S)SC(C(=O)Nc1nnc(-c2ccccc2)o1)c1ccccc1 (centres undefined)
inactive: A549 15.3 µM | ACHN 17.4 µM | BT-549 13.1 µM | CAKI-1 19.4 µM | Hs-578T 40.3 µM | K562 15.7 µM | KM12 20.2 µM | LOX IMVI 4.23 µM | MDA-MB-435 17.1 µM | NCI-H226 24.7 µM | NCI-H522 17.8 µM | OVCAR-5 23.1 µM | RXF 393 16.2 µM | SK-MEL-2 18.1 µM | SK-OV-3 32.4 µM | T47D 23.7 µM
5.24 µM: HCT-15

Clc1cc(Cl)cc(/N=C/C=C/Nc2cc(Cl)cc(Cl)c2)c1
14.9 µM: HCT-15
inactive: A549 18.3 µM | ACHN 20.1 µM | BT-549 43.3 µM | CAKI-1 15.2 µM | Hs-578T 19.1 µM | K562 23.6 µM | KM12 16.2 µM | MDA-MB-435 18.6 µM | NCI-H226 14.4 µM | NCI-H522 14.7 µM | OVCAR-5 21.6 µM | RXF 393 17.3 µM | SF-268 18.9 µM | SK-MEL-2 19.9 µM | SK-OV-3 35.5 µM | T47D 22.9 µM | UACC-62 19.7 µM
